Here are results for ten molecules from PMC9927415, “Tyrosine Kinase Inhibitors Display Potent Activity against Cryptosporidium parvum” (Microbiology Spectrum, 2022).

The structures appear in SMILES notation.

The target in one test is T1, PIM1 (Homo sapiens, UniProt P11309).
T1 construct: purchased DiscoverX (KINOMEscan)
The experiment in a line: KINOMEscan competitive binding. Particulars: n=1, read-out: Percent inhibition, PIM1.

A further test has as its target T2, PKAC-beta (Homo sapiens, UniProt P22694).
T2 construct: purchased DiscoverX (KINOMEscan)
The experiment in a line: KINOMEscan competitive binding. The settings on record: n=1, read-out: Percent inhibition, PKAC-beta.

The target of another test is T3, TLK1 (Homo sapiens, UniProt Q9UKI8).
T3 construct: purchased DiscoverX (KINOMEscan)
T3 sequence (Q9UKI8 1-766): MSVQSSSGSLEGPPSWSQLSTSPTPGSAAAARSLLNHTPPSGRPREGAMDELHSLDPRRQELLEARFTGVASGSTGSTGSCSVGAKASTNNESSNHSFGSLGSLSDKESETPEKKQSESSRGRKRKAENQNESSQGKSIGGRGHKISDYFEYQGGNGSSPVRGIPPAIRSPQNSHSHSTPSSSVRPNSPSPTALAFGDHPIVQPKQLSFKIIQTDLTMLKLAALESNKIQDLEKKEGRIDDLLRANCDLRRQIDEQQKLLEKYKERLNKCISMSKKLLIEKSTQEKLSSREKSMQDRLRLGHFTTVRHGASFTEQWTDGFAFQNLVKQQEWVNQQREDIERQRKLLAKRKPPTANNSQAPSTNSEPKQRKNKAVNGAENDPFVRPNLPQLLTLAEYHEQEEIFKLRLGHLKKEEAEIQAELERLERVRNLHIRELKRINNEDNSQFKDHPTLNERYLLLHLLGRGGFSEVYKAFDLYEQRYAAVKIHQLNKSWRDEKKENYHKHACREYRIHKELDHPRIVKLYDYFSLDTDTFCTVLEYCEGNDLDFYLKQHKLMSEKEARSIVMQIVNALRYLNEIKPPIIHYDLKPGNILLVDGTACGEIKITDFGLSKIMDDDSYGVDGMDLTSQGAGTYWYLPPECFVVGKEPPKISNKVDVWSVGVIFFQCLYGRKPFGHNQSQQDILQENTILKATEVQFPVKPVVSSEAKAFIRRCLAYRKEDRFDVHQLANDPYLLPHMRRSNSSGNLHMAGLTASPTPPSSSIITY
Kind of test: KINOMEscan competitive binding. The settings on record: n=1, read-out: Percent inhibition, TLK1.

The next test relates to Cryptosporidium parvum. The experiment in a line: In vitro C. parvum growth inhibition assay (Nluc reporter strain in HCT-8 cells). Format: cell-based. The settings on record: 48 h; for EC50: mean of two independent experiments, dose response 10 nM to 10 μM, read-out: Cp EC50; for inhibition at 10 µM: primary screen, 10 μM compound, three technical replicates, read-out: Mean percent inhibition of C. parvum growth. How it is done:
Host intestinal epithelial adenocarcinoma (HCT-8) cells were seeded into 96-well plates and grown to 70% confluence in RPMI medium supplemented with L-glutamine, 10% fetal bovine serum (FBS), 0.1 U/mL penicillin, 0.1 μg/mL streptomycin, 0.25 μg/mL amphotericin B and 1 mM sodium pyruvate. The host cell medium was aspirated and replaced with Cryptosporidium infection media (RPMI containing 2% FBS, 0.1 U/mL penicillin, 0.1 μg/mL streptomycin and 0.25 μg/mL amphotericin B) media prior to infection. The HCT-8 cells were infected with bleached and washed Nluc expressing C. parvum oocysts (2,000 oocysts per well) to which 10 μM compounds were added and plates were incubated for 48 h at 37°C, 5% CO2 and luminescence was measured using the protocol described previously ([14], [58]). […] Negative (no drug) and positive control (10 μM nitazoxanide) wells (three replicates each) were also set-up in the same plate. After the incubation, medium was removed and 100 μL of NanoGlo lysis buffer (Promega) was added to the wells followed by incubation for 15 min at 37°C, 5% CO2. The lysate was suspended by pipetting and 100 μL of NanoGlo lysis buffer containing 1:50 of NanoGlo substrate (Promega) was added to each well. […] For the dose response assay, compounds were tested in triplicate wells in two independent experiments and percent luminescence of no drug was calculated.
EC50 values were calculated using a nonlinear regression (curve fit of log-dose versus response) in GraphPad Prism version 8.

The test system of a further test is panel of 203 kinases. Kind of test: KINOMEscan competitive binding, whole panel. More on the design: species or system human. The settings on record: 10 μM; for number of other kinases strongly bound (≥99%): not including the CDKs and Aurora kinase A. A digest of the protocol:
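T7 phage-fused kinases; compound displaces immobilized ATP-site probe ligand; bead-bound kinase quantified; % inhibition reported.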

The subject of a further test is HepG2 cells. Kind of test: Host cell cytotoxicity assay (CellTiter-Glo). The settings on record: HepG2 CC50/C. parvum EC50. The procedure:
HepG2 cells were grown in Eagle’s Minimum Essential Medium (MEM) containing 10% FBS, 1% nonessential amino acids (NEAA) and 1% penicillin/streptomycin to >50% confluence prior to harvesting. Cells were suspended in media and 3000 cells per well were added onto 384-well clear bottom plates. Prior to addition of the cell suspension, the screening compounds (250 nl) were predispensed into plates using a liquid handler. Plates were incubated for 48 h at 37°C, 5% CO2. After 48 h of incubation, plates were equilibrated at room temperature for 30 min before luminescence signal was measured using CellTiter-Glo Reagent. Plates were kept at room temperature for 10 min to stabilize the signal and then read using a ViewLux luminescence reader. The HepG2 CC50 (from the host cell cytotoxicity assays) and C. parvum mean EC50 (from parasite growth inhibition assays) values were used to calculate selectivity index.
A general note: Cellular ATP, detected with luciferase, serves as a proxy for viable cell number.

For another test, the target named is JAK3. On the set-up: method as in earlier work. Particulars: previous study; read-out: Ki against JAK3; cited from earlier work.
Another test relates to JAK kinase domains. The experiment in a line: KINOMEscan competitive binding. On the set-up: species or system human. Particulars: kinome profiling, 10 μM. An excerpt: The kinases were expressed as fusions to T7 bacteriophage. This is a sensitive, competitive binding assay where test compounds were used to displace immobilized ATP-site binding probe ligands from kinases of interest. The amount of kinase that remained bound to the immobilized probe ligands on the solid support was quantified. Percentage inhibition data were was plotted on kinome trees using the web-based tool KinMap (http://www.kinhub.org/kinmap) ([60]).

The next test deals with ROCK1. More on the design: method as in earlier work. Particulars: previous study; read-out: Ki against ROCK1; cited from earlier work.

For `CN1CCN(c2ccc(Nc3nccc(-c4cnn5ncccc45)n3)cc2C#N)CC1` [Compound 1], the inhibition at 10 µM at PIM1 was 99.8%; at PKAC-beta it was 0%; on TLK1, 99.2%; with Cryptosporidium parvum it was 95.6%. In addition, in the test on Cryptosporidium parvum, the 50% effective concentration (EC50) came out at 40 nM. Further, the “number of other kinases strongly bound (≥99%)” value in the test on panel of 203 kinases was 50. Besides, the Selectivity index in the test on HepG2 cells was greater than 100.
In the case of `COc1ccc(Nc2nccc(-c3cnn4ncccc34)n2)cc1` [Compound 2], the inhibition at 10 µM amounted to 0% at PIM1, 0% at PKAC-beta, 0% at TLK1 and 92.9% in the test with Cryptosporidium parvum. In addition, the EC50 in the test on Cryptosporidium parvum amounted to 130 nM. In addition, the “number of other kinases strongly bound (≥99%)” value in the test with panel of 203 kinases came out at 28. The same molecule gave a Selectivity index in the test with HepG2 cells greater than 100.
Take `Cc1ccc(O)cc1Nc1ccnc(Nc2cccc(C(N)=O)c2)n1` [Compound 3]: the inhibition at 10 µM worked out at 0% on PIM1, 0% at PKAC-beta, 0% at TLK1 and 94.4% in the test on Cryptosporidium parvum. In addition, the EC50 in the test with Cryptosporidium parvum amounted to 610 nM.
On to `Cc1ccc(O)cc1N(C)c1ccnc(Nc2cccc(S(N)(=O)=O)c2)n1` [Compound 4], for which the inhibition at 10 µM at PIM1 was 0%; on PKAC-beta, 77.8%; at TLK1, 0%; in the test with Cryptosporidium parvum it was 95.5%. Also, the EC50 with Cryptosporidium parvum was found to be 80 nM.
In the case of `Fc1cccc(COc2ccc(Nc3ncnc4c3CN(CCN3CCOCC3)CC4)cc2Cl)c1` [Compound 6], the inhibition at 10 µM at PIM1 was 0%; on PKAC-beta, 0%; at TLK1 it was 0%; with Cryptosporidium parvum it was 93.7%. Besides, the EC50 in the test with Cryptosporidium parvum was found to be 240 nM. Besides, in the test with HepG2 cells, the Selectivity index is recorded as greater than 100.
In the case of `COc1cc(Nc2nccc(-c3sc(N)nc3-c3cccc(NC(=O)c4c(F)cccc4F)c3)n2)cc(OC)c1OC` [Compound 7], the inhibition at 10 µM stood at 0% on PIM1, 0% at PKAC-beta, 0% at TLK1 and 90.9% in the test with Cryptosporidium parvum. The EC50 with Cryptosporidium parvum is 180 nM. In addition, in the test on panel of 203 kinases, the “number of kinases with >99% inhibition” value is 48. This molecule yielded a Selectivity index with HepG2 cells of 14.
Turning to `C[C@@H](Oc1cc(-c2cnc3ccccn23)sc1C(N)=O)c1ccccc1Cl` [Compound 8], the inhibition at 10 µM was 76.4% on PIM1, 0% on PKAC-beta, 0% on TLK1 and 95% with Cryptosporidium parvum. Moreover, the EC50 in the test on Cryptosporidium parvum was found to be 390 nM.
With `c1ccc(COc2cccc(-c3ccnc4[nH]ccc34)c2)cc1` [Compound 9], the inhibition at 10 µM at PIM1 was 0%; at PKAC-beta, 0%; on TLK1, 0%; in the test on Cryptosporidium parvum it was 95.2%. Also, the Ki on JAK3 and on ROCK1 was less than 500 nM each time. The EC50 with Cryptosporidium parvum came to 310 nM. In addition, the “binding to JAK kinase domains, in words” value in the test on JAK kinase domains is “little binding”.
In the case of `Clc1ccc(Nc2ncc(-c3ccccc3)s2)cc1` [Compound 10], the inhibition at 10 µM was found to be 0% at PIM1, 0% on PKAC-beta, 0% on TLK1 and 95.1% with Cryptosporidium parvum. For the same molecule, the EC50 with Cryptosporidium parvum was 420 nM.
`Nc1ncc2c(-c3ccncc3)c[nH]c2n1` [Compound 11]: the inhibition at 10 µM on PIM1 was found to be 0%; at PKAC-beta, 0%; at TLK1, 0%; in the test with Cryptosporidium parvum it was 90.8%. Also, in the test on Cryptosporidium parvum, the EC50 was determined as 60 nM. In the test with HepG2 cells, this molecule gave a Selectivity index greater than 100.

Broadly, the inhibition is the change of the read-out against control, counted positive when it falls. In general, EC50 refers to the concentration giving half of the maximal effect. One may read the Ki as the equilibrium dissociation constant of an inhibitor or competing ligand from its target.
